Results from ChEMBL document CHEMBL5653631, “A Potent and Selective ULK1 Inhibitor Suppresses Autophagy and Sensitizes Cancer Cells to Nutrient Stress” (iScience, 2018).

Tests used:
[1] = target: SRSF protein kinase 3 (Homo sapiens) (UniProt Q9UPE1); assay: Inhibition of human recombinant MSSK1 at 500 nM in presence of ATP by radiometric assay relative to control
[2] = target: Interleukin-1 receptor-associated kinase 1 (Homo sapiens) (UniProt P51617); assay: Inhibition of human recombinant IRAK1 at 500 nM related to control ULK1
Sequence of Interleukin-1 receptor-associated kinase 1 (Homo sapiens) (P51617 whole entry, looked up): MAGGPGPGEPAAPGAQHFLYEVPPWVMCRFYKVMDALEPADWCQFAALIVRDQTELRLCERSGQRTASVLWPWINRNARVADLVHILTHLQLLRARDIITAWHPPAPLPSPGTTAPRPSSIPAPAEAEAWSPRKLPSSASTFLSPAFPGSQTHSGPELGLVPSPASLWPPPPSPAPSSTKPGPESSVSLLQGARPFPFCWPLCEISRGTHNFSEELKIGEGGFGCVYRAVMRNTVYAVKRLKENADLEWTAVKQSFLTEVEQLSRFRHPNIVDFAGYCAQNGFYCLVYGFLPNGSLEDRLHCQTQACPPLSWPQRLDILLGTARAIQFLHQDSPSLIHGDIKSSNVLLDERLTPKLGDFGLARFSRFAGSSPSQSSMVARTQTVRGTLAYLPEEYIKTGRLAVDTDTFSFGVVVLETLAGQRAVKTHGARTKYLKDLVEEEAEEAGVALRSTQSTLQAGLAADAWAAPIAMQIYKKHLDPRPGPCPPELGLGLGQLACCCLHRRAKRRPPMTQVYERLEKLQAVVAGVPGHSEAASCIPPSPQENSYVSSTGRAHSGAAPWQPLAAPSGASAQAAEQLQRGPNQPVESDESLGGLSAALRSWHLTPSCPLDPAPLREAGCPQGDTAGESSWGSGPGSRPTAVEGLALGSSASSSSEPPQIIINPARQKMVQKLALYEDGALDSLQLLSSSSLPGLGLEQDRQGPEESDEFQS

[3] = target: Serine/threonine-protein kinase PAK 5 (Homo sapiens) (UniProt Q9P286); assay: Inhibition of human recombinant PAK5 at 500 nM related to control ULK1
Sequence of Serine/threonine-protein kinase PAK 5 (Homo sapiens) (Q9P286 whole entry, looked up): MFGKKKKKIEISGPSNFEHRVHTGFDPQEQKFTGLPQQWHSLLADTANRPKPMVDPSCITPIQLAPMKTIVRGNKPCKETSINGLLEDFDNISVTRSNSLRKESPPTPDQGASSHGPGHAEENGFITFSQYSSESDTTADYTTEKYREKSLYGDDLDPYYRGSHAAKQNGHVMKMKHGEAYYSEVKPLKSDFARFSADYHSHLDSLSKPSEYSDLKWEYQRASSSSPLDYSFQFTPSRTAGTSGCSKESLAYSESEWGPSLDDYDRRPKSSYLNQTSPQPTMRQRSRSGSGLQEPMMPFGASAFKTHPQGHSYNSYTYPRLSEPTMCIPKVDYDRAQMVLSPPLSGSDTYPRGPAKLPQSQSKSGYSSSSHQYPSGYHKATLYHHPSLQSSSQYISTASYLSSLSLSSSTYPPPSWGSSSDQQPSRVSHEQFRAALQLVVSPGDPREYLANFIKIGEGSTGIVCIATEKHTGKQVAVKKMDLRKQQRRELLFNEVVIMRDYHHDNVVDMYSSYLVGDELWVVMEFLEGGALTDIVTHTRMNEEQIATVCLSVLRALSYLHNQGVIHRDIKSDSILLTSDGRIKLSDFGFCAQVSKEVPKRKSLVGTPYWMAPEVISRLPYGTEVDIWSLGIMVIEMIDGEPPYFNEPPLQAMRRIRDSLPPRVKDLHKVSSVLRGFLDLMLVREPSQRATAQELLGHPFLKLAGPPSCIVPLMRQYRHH

[4] = target: T1, Serine/threonine-protein kinase haspin (Homo sapiens) (UniProt Q8TF76); assay: Inhibition of human recombinant Haspin at 500 nM in presence of ATP by radiometric assay relative to control
T1 sequence (whole entry): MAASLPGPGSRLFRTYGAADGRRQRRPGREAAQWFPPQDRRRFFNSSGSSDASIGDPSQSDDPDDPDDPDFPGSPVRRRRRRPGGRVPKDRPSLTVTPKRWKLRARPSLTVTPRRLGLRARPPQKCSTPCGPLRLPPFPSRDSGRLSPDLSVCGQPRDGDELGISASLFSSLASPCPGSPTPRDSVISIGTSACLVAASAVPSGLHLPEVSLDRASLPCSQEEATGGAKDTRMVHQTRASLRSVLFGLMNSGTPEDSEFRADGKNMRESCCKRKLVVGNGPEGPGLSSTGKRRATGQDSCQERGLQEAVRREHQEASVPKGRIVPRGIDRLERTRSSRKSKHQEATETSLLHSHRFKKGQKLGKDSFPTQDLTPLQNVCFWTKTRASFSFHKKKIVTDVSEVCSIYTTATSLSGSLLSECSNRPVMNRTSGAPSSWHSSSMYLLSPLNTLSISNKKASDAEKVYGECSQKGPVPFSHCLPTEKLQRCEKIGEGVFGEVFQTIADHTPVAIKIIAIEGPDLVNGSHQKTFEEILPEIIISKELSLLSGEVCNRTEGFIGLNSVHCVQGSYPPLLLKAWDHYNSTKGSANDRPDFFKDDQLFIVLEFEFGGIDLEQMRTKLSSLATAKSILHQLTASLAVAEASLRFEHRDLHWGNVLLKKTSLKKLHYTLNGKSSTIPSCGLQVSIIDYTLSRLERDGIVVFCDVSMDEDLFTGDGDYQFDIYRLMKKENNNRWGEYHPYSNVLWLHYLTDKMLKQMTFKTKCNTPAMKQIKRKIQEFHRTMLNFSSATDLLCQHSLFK

[5] = target: T2, Ephrin type-A receptor 3 (Homo sapiens) (UniProt P29320); assay: Inhibition of human recombinant EphA3 at 15 nM in presence of ATP by radiometric assay relative to control
T2 sequence (whole entry): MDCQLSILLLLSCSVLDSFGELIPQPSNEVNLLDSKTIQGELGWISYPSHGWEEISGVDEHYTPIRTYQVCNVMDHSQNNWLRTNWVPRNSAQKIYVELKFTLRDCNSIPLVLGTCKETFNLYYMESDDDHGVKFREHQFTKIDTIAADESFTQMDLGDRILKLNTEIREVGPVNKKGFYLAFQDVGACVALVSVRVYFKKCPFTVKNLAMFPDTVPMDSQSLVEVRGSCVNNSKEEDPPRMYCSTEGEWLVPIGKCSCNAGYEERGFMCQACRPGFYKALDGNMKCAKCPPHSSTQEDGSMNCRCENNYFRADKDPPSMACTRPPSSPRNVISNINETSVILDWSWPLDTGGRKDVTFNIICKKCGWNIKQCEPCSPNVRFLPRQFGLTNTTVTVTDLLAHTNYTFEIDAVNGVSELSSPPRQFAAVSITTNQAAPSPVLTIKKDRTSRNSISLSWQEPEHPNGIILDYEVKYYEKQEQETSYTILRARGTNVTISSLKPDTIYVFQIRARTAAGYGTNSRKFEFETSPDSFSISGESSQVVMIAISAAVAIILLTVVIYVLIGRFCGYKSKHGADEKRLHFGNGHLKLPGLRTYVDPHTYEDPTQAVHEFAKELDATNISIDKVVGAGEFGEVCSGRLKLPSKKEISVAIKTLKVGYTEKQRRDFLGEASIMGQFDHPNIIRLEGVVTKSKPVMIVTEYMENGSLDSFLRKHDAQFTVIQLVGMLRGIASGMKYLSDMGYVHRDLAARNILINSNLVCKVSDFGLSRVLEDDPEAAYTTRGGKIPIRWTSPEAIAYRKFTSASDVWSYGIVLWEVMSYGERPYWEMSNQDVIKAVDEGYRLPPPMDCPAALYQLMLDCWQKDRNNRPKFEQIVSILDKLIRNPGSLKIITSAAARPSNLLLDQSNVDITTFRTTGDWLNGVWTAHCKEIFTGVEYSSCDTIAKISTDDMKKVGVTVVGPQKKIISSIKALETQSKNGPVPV

[6] = target: Insulin receptor (Homo sapiens) (UniProt P06213); assay: Inhibition of human recombinant INSR at 15 nM related to control ULK1
Sequence of Insulin receptor (Homo sapiens) (P06213 28-758 limits assumed): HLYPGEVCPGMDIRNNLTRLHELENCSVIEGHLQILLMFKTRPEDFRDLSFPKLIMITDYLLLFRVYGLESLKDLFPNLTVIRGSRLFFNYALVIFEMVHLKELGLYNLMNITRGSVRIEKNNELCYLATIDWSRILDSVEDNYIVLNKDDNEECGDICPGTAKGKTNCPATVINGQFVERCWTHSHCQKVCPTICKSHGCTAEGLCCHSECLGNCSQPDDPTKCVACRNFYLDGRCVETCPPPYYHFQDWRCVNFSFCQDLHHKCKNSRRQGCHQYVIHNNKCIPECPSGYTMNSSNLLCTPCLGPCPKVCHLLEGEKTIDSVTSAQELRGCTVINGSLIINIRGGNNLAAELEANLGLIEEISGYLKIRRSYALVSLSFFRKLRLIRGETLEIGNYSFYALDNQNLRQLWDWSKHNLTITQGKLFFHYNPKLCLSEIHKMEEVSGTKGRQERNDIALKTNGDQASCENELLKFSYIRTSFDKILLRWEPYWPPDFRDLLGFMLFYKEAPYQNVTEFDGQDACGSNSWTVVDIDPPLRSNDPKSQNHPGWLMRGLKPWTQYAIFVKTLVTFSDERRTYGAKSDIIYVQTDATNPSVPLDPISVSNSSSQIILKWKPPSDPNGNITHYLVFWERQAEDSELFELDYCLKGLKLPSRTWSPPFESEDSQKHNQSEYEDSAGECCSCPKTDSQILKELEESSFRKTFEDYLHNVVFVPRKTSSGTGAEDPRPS
Sequence of Insulin receptor (Homo sapiens) (P06213 763-1382 limits assumed): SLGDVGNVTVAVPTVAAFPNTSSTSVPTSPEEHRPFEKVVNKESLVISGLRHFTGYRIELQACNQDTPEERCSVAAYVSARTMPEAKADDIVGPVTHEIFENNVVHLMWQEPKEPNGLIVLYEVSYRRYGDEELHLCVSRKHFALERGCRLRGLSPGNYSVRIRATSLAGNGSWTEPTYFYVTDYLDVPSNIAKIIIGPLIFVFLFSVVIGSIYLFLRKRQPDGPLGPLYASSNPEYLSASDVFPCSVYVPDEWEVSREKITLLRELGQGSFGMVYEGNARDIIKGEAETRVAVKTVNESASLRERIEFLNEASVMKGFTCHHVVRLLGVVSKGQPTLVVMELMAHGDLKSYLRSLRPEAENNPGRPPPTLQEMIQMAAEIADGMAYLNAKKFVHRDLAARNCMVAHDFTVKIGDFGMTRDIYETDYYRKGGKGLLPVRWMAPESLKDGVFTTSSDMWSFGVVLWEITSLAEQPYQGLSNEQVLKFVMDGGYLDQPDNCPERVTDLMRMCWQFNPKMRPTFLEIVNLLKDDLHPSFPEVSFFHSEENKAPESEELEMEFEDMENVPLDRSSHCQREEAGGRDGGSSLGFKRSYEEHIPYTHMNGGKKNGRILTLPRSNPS

[7] = target: T3, Discoidin domain-containing receptor 2 (Homo sapiens) (UniProt Q16832); assay: Inhibition of human recombinant DDR2 at 15 nM in presence of ATP by radiometric assay relative to control
T3 sequence (whole entry): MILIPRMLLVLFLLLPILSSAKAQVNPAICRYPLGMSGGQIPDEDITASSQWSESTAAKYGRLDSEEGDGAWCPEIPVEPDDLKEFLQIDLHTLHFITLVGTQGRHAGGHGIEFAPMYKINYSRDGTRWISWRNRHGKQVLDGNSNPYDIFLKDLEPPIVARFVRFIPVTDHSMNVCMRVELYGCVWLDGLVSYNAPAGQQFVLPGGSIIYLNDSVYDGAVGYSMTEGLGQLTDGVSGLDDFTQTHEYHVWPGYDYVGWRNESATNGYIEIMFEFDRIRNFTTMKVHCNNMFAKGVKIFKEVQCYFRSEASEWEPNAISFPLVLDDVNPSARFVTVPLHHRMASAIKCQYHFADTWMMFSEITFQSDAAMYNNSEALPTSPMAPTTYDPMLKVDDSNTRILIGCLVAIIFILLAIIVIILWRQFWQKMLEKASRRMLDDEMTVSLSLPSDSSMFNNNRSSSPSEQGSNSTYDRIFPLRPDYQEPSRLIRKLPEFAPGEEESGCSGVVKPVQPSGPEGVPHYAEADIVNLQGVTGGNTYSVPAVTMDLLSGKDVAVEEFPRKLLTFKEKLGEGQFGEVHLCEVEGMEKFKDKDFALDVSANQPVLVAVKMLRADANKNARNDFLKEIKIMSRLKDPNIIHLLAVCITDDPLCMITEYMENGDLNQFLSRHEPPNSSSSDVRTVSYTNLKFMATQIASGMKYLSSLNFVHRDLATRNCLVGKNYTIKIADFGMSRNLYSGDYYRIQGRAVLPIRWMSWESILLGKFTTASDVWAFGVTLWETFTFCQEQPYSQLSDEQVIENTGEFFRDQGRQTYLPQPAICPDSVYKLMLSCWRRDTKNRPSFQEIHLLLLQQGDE

Sequence of SRSF protein kinase 3 (Homo sapiens) (Q9UPE1 whole entry): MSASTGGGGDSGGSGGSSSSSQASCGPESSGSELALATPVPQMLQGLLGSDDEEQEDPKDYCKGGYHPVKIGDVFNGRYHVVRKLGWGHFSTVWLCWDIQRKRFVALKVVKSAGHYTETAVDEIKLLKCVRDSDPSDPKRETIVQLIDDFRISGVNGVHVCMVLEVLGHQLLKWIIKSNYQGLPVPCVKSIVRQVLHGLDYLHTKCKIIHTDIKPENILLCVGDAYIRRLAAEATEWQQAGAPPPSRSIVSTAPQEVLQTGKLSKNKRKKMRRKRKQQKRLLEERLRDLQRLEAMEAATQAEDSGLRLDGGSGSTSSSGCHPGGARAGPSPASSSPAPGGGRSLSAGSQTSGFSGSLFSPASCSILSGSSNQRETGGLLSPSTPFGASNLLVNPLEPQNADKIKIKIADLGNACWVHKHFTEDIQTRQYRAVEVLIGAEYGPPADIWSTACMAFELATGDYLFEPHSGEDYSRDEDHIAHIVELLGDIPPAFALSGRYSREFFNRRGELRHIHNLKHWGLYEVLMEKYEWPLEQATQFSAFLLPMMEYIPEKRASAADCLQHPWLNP

Row | inhibition [1] [%] | fold change (FC) [2] | fold change (FC) [3] | inhibition [4] [%] | inhibition [5] [%] | fold change (FC) [6] | inhibition [7] [%] | Structure (SMILES)
1 | 15 | 0.2 | 0.07 | 0 |  |  |  | CNC(=O)c1ccccc1Oc1nc(Nc2cc(OC)c(OC)c(OC)c2)ncc1Br
2 |  |  |  |  | 3 | 0 | 0 | CC(C)[C@H](NC(=O)c1cc(-c2cnn3cc(-c4ccc(OCCN5CCCCC5)cc4)cnc23)cs1)C(F)(F)F
